ChEMBL document CHEMBL1143405, “Retapamulin inhibition of translation and 50S ribosomal subunit formation in Staphylococcus aureus cells” (Antimicrob Agents Chemother, 2007)
Values after ≈ are worked out from the molar mass of the structure shown. Active and inactive are the calls of the source. The rule behind the calls is not given here.

Columns and labels:
Staphylococcus aureus [1] = assay: Inhibition of ribosomal 50S subunit synthesis in wild type Staphylococcus aureus RN1786 at 8 ng/mL by [3H]uridine pulse-chase labeling method; format: functional, organism-based
Staphylococcus aureus [2] = assay: Effect on 16S rRNA level in wild type Staphylococcus aureus RN1786 at 10 ng/mL by agilent bioanalyzer analysis; format: functional
Staphylococcus aureus [3] = assay: Antibacterial activity against methicillin-resistant Staphylococcus aureus A1024; format: functional
Staphylococcus aureus [4] = assay: Effect on 16S rRNA level in methicillin-resistant Staphylococcus aureus A1024 at 20 ng/mL by agilent bioanalyzer analysis; format: functional
Staphylococcus aureus [5] = assay: Inhibition of ribosomal 30S subunit formation in methicillin-resistant Staphylococcus aureus A1024; format: functional, organism-based
Staphylococcus aureus [6] = assay: Increase in small RNA level in methicillin-resistant Staphylococcus aureus A1024 at 20 ng/mL by agilent bioanalyzer analysis; format: functional
Staphylococcus aureus [7] = assay: Inhibition of ribosomal 30S subunit formation in wild type Staphylococcus aureus RN1786; format: functional, organism-based
Staphylococcus aureus [8] = assay: Inhibition of total viable cell number in wild type Staphylococcus aureus RN1786; format: functional, organism-based
Staphylococcus aureus [9] = assay: Inhibition of ribosomal 30S subunit synthesis in methicillin-resistant Staphylococcus aureus A1024 at 8 ng/mL by [3H]uridine pulse-chase labeling method; format: functional, organism-based
Staphylococcus aureus [10] = assay: Reduction of 23S rRNA level in methicillin-resistant Staphylococcus aureus A1024 at 20 ng/mL by agilent bioanalyzer analysis; format: functional; set-up: scale not given: the % may be the effect or the level left
Staphylococcus aureus [11] = assay: Reduction of 23S rRNA level in wild type Staphylococcus aureus RN1786 at 10 ng/mL by agilent bioanalyzer analysis; format: functional; set-up: scale not given: the % may be the effect or the level left
Staphylococcus aureus [12] = assay: Reduction of 23S rRNA level in wild type Staphylococcus aureus RN1786 at 20 ng/mL by agilent bioanalyzer analysis; format: functional; set-up: scale not given: the % may be the effect or the level left
Staphylococcus aureus [13] = assay: Increase in small RNA level in wild type Staphylococcus aureus RN1786 at 10 ng/mL by agilent bioanalyzer analysis; format: functional
Staphylococcus aureus [14] = assay: Increase in small RNA level in methicillin-resistant Staphylococcus aureus A1024 at 10 ng/mL by agilent bioanalyzer analysis; format: functional
Staphylococcus aureus [15] = assay: Inhibition of total viable cell number in methicillin-resistant Staphylococcus aureus A1024; format: functional, organism-based
Staphylococcus aureus [16] = assay: Inhibition of ribosomal 50S subunit synthesis in methicillin-resistant Staphylococcus aureus A1024; format: functional, organism-based
Staphylococcus aureus [17] = assay: Inhibition of protein synthesis in wild type Staphylococcus aureus RN1786; format: functional, organism-based
Staphylococcus aureus [18] = assay: Inhibition of ribosomal 50S subunit synthesis in wild type Staphylococcus aureus RN1786; format: functional, organism-based
Staphylococcus aureus [19] = assay: Inhibition of ribosomal 50S subunit synthesis in methicillin-resistant Staphylococcus aureus A1024 at 8 ng/mL by [3H]uridine pulse-chase labeling method; format: functional, organism-based
Staphylococcus aureus [20] = assay: Inhibition of protein synthesis in methicillin-resistant Staphylococcus aureus A1024; format: functional, organism-based
Staphylococcus aureus [21] = assay: Reduction of 23S rRNA level in methicillin-resistant Staphylococcus aureus A1024 at 10 ng/mL by agilent bioanalyzer analysis; format: functional; set-up: scale not given: the % may be the effect or the level left
Staphylococcus aureus [22] = assay: Antibacterial activity against wild type Staphylococcus aureus RN1786; format: functional
Staphylococcus aureus [23] = assay: Effect on 16S rRNA level in wild type Staphylococcus aureus RN1786 at 20 ng/mL by agilent bioanalyzer analysis; format: functional
Staphylococcus aureus [24] = assay: Effect on 16S rRNA level in methicillin-resistant Staphylococcus aureus A1024 at 10 ng/mL by agilent bioanalyzer analysis; format: functional
Staphylococcus aureus [25] = assay: Increase in small RNA level in wild type Staphylococcus aureus RN1786 at 20 ng/mL by agilent bioanalyzer analysis; format: functional

C=C[C@]1(C)C[C@@H](OC(=O)CS[C@@H]2C[C@H]3CC[C@@H](C2)N3C)[C@]2(C)[C@H](C)CC[C@]3(CCC(=O)[C@H]32)[C@@H](C)[C@@H]1O [RETAPAMULIN]
Activity (Staphylococcus aureus [1]): Active
Activity (Staphylococcus aureus [2]): 19.8%
MIC (Staphylococcus aureus [3]): 0.055 µg/mL (≈ 0.106 µM)
Activity (Staphylococcus aureus [4]): 18.8%
Activity (Staphylococcus aureus [5]): inactive
Activity (Staphylococcus aureus [6]): 57.6%
Activity (Staphylococcus aureus [7]): inactive
IC50 (Staphylococcus aureus [8]): 0.012 µg/mL (≈ 0.0232 µM)
Activity (Staphylococcus aureus [9]): inactive
Activity (Staphylococcus aureus [10]): 12.3%
Activity (Staphylococcus aureus [11]): 15.3%
Activity (Staphylococcus aureus [12]): 16.6%
Activity (Staphylococcus aureus [13]): 68.7%
Activity (Staphylococcus aureus [14]): 52.3%
IC50 (Staphylococcus aureus [15]): 0.025 µg/mL (≈ 0.0483 µM)
IC50 (Staphylococcus aureus [16]): 0.02 µg/mL (≈ 0.0386 µM)
IC50 (Staphylococcus aureus [17]): 0.005 µg/mL (≈ 0.00966 µM)
IC50 (Staphylococcus aureus [18]): 0.027 µg/mL (≈ 0.0521 µM)
Activity (Staphylococcus aureus [19]): Active
IC50 (Staphylococcus aureus [20]): 0.017 µg/mL (≈ 0.0328 µM)
Activity (Staphylococcus aureus [21]): 14.1%
MIC (Staphylococcus aureus [22]): 0.035 µg/mL (≈ 0.0676 µM)
Activity (Staphylococcus aureus [23]): 19.7%
Activity (Staphylococcus aureus [24]): 18.8%
Activity (Staphylococcus aureus [25]): 70.6%
